Reference: patent US6150524A, “Morphine derivatives with analgesic activity” (priority 1995, dated 2000)
Structures can show the parent of a compound that is named as a salt. Where two headings read alike, the source gives them in different places.

System: mice
Test: Haffner test ("Tail clip test") in mice
Type: in vivo, mouse (male CD mice)
Details: Mus musculus, read-out: ED50 (Haffner test in mice)
Excerpt: METHOD: Haffner Test ("Tail clip test") in Mice
The Haffner test is a standard procedure for determining the pain-inhibiting effect of powerful analgesics, mostly of the opioid type, in mice. The method largely corresponds to the one described by Bianchi C. and Franceschini J. (Brit. J. Pharmacol. 9:280, 1954; Experimental observations on Haffner's method for testing analgesic drugs).
Male CD mice (from Charles River, Sulzfeld, FRG) with an average weight of 30±5 grams were used. The animals were kept under standard conditions (temperature: 22±2° C., relative humidity: 55±10%, air exchange: 15-20 times per hour and 12/12 hours light/darkness cycle). The animals had unlimited access to food and water until the test began. During the test the animals were kept singly in Makrolon Type III cages with no bedding. A 3.5 cm arterial clamp was placed about 2 cm from the base of the tail and the pain reaction time was measured in seconds. Any active attempt by the animal to remove the clamp was assessed as a pain reaction. To prevent tissue damage, the test was stopped after at most 30 seconds in every case (cut off latency). In a preliminary test, mice with a pain reaction time of less than 5 seconds (base line latency) were selected for the actual test, which was carried out at specific intervals after the administration of the drug (test latency).
Corresponding quantities of test substances were dissolved in physiological saline solution for intravenous administration or in twice distilled water for oral administration. The total volume administered was 10 ml/kg of body weight in each case. Controls were given the same solvent but with no test substance. 8-10 mice were tested in each group.
The results were plotted as individual values (seconds), mean value±scattering (seconds) per group and as the percent of the maximum possible effect (% MPE=percent of Maximum Possible Effect). [formula] Significant differences between the control and test groups were calculated by means of an unpaired, two-sided Students T-test (*2P<0.05;**2P<0.01; 2P<0.001).
The ED50 value describes the dosage at which 50% of the maximum possible effect (MPE) is achieved. The ED50 value is calculated by linear regression between the dose and the % MPE.

Row | Compound | ED50 (iv, 10 min, i.v., 10 min.) [µmol/kg] | ED50 (iv, 0.5 h, i.v., 30 min.) [µmol/kg] | ED50 (iv, 1 h, i.v., 60 min.) [µmol/kg] | ED50 (iv, 2 h, i.v., 120 min.) [µmol/kg] | ED50 (po, 0.5 h, p.o., 30 min.) [µmol/kg] | ED50 (po, 1 h, p.o., 60 min.) [µmol/kg] | ED50 (po, 2 h, p.o., 120 min.) [µmol/kg] | ED50 (po, 3 h, p.o., 180 min.) [µmol/kg] | ED50 (iv, 10 min) [µmol/kg] | ED50 (iv, 0.5 h) [µmol/kg] | ED50 (iv, 1 h) [µmol/kg] | ED50 (iv, 2 h) [µmol/kg] | ED50 (po, 0.5 h) [µmol/kg] | ED50 (po, 1 h) [µmol/kg] | ED50 (po, 2 h) [µmol/kg] | ED50 (po, 3 h) [µmol/kg]
2 | COC(=O)CCCCC(=O)O[C@H]1CC[C@H]2[C@H]3Cc4ccc(O)c5c4[C@@]2(CCN3C)[C@H]1O5 [Example 4, 4,5α-Epoxy-6α-((5-methoxycarbonyl-valeryl)-oxy)-17-methyl-morphinan-3-ol acetate] | – | – | – | – | 0.039 | 0.044 | 0.073 | 0.189 | – | – | – | – | – | – | – | –
3 | CN1CC[C@]23c4c5ccc(O)c4O[C@H]2[C@@H](OCCCCOC(=O)c2ccccc2)C=C[C@H]3[C@H]1C5 [Example 4] | 0.0004 | 0.0031 | 0.0119 | 0.0217 | 0.035 | 0.046 | 0.058 | 0.069 | – | – | – | – | – | – | – | –
4 | COC(=O)c1ccc(CO[C@H]2C=C[C@H]3[C@H]4Cc5ccc(O)c6c5[C@@]3(CCN4C)[C@H]2O6)cc1 [Example 5] | 0.0008 | 0.0008 | 0.0032 | 0.0095 | 0.06 | 0.068 | 0.072 | 0.09 | – | – | – | – | – | – | – | –
5 | CN1CC[C@]23c4c5ccc(O)c4O[C@H]2[C@@H](OCCCCOC(=O)C(C)(C)C)C=C[C@H]3[C@H]1C5 [Example 6] | 0.0005 | 0.0026 | 0.0114 | 0.029 | 0.058 | 0.108 | 0.12 | 0.132 | – | – | – | – | – | – | – | –
6 | CN1CC[C@]23c4c5ccc(O)c4O[C@H]2[C@@H](OC(=O)C(C)(O)C(F)(F)F)C=C[C@H]3[C@H]1C5 (some centres unmarked) [Example 11] | 0.0056 | 0.007 | 0.013 | 0.019 | 0.148 | 0.172 | 0.256 | 0.269 | – | – | – | – | – | – | – | –
7 | COc1ccc(CCCC(=O)O[C@H]2C=C[C@H]3[C@H]4Cc5ccc(O)c6c5[C@@]3(CCN4C)[C@H]2O6)cc1 [Example 19] | 0.002 | 0.0025 | 0.0033 | 0.0056 | 0.084 | 0.107 | 0.128 | 0.178 | – | – | – | – | – | – | – | –
8 | COC(=O)CCCCC(=O)O[C@H]1C=C[C@H]2[C@H]3Cc4ccc(O)c5c4[C@@]2(CCN3C)[C@H]1O5 [Example 20] | 0.0037 | 0.0051 | 0.011 | 0.015 | 0.118 | 0.12 | 0.17 | 0.234 | – | – | – | – | – | – | – | –
9 | COC(=O)CCCCCCC(=O)O[C@H]1C=C[C@H]2[C@H]3Cc4ccc(O)c5c4[C@@]2(CCN3C)[C@H]1O5 [Example 22, 4,5α-Epoxy-6α-((6-methoxycarbonyl-hexylcarbonyl)-oxy)-17-methyl-morphinan-7-en-3-ol] | 0.0025 | 0.0033 | 0.005 | 0.022 | 0.109 | 0.208 | 0.298 | 0.315 | – | – | – | – | – | – | – | –
10 | CCOC(=O)CCCCCO[C@H]1C=C[C@H]2[C@H]3Cc4ccc(O)c5c4[C@@]2(CCN3C)[C@H]1O5 [Example 22] | 0.003 | 0.0037 | 0.01 | 0.012 | 0.055 | 0.09 | 0.096 | 0.086 | – | – | – | – | – | – | – | –
11 | CCOC(=O)CCCCO[C@H]1C=C[C@H]2[C@H]3Cc4ccc(O)c5c4[C@@]2(CCN3C)[C@H]1O5 [Example 25] | 0.0011 | 0.0057 | 0.0112 | 0.0129 | 0.0201 | 0.028 | 0.031 | 0.037 | – | – | – | – | – | – | – | –
12 | CN1CC[C@]23c4c5ccc(O)c4O[C@H]2[C@@H](OCCCCC#N)C=C[C@H]3[C@H]1C5 [Example 27] | 0.0059 | 0.0073 | 0.0154 | 0.038 | 0.059 | 0.073 | 0.108 | 0.178 | – | – | – | – | – | – | – | –
13 | CCCC(COC1C=CC2C3Cc4ccc(O)c5c4C2(CCN3C)C1O5)OC(C)=O (centres unmarked) [Example 32] | 0.001 | 0.003 | 0.0099 | 0.024 | 0.068 | 0.12 | 0.154 | 0.232 | – | – | – | – | – | – | – | –
14 | CCCC(O)CO[C@H]1C=C[C@H]2[C@H]3Cc4ccc(O)c5c4[C@@]2(CCN3C)[C@H]1O5 (some centres unmarked) [Example 33] | 0.0019 | 0.0046 | 0.0083 | 0.021 | 0.029 | 0.037 | 0.051 | 0.069 | – | – | – | – | – | – | – | –
15 | CC(=O)OCCCO[C@H]1C=C[C@H]2[C@H]3Cc4ccc(O)c5c4[C@@]2(CCN3C)[C@H]1O5 [Example 38] | 0.0003 | 0.0019 | 0.0036 | 0.079 | 0.023 | 0.027 | 0.035 | 0.043 | – | – | – | – | – | – | – | –
16 | CN1CC[C@]23c4c5ccc(O)c4O[C@H]2[C@@H](OCCCO)C=C[C@H]3[C@H]1C5 [Example 39] | – | – | – | – | 0.027 | 0.035 | 0.149 | 0.283 | – | – | – | – | – | – | – | –
17 | CN1CC[C@]23c4c5ccc(O)c4O[C@H]2[C@@H](O)C=C[C@H]3[C@H]1C5 [Morphine.HCl, reference compound] | – | – | – | – | – | – | – | – | 0.017 | 0.019 | 0.021 | 0.037 | 0.279 | 0.296 | 0.539 | 0.718
